Laboratory results: patent US11076597B2, “High stress resistant plant growth regulator and preparation method and use thereof” (SHANGHAI INSTITUTES FOR BIOLOGICAL SCIENCES, CHINESE …, priority 2015, dated 2021)
“Also recorded” adds a separate entry of the source.

What was measured:
cotton = assay: Soil drought experiment, cotton; type: in vivo; conditions: 20 μM sprayed once every 3 days; re-watering after 6 days of drought; FIG. 9
Protocol: Soybean, cotton and wheat for leaf transpiration experiments were used simultaneously for soil drought experiments, each pot was filled with the same weight of soil to reduce experimental error. All the soybean plants were subjected to a long-day culture at 26° C. 14 days after sowing, watering was stopped and the plants with the consistent growth condition were selected for drought treatment. At the start of the drought, a solution containing 0.1% Tween-20 and 20 μM (+)-ABA/0224/0304 or 0.1% Tween-20 and 0.05% DMSO (control) was sprayed onto the leaf surface once with a spray amount of 4 ml solution/pot. Meanwhile, the position of the pot was changed and re-watered 6 days after the drought, and the photos were taken 1 day after re-watering. The drought experiment of cotton was similar to that of soybeans, watering was stopped 25 days after sowing, the plants with the consistent growth condition were selected for drought treatment. At the start of the drought, a solution containing 0.1% Tween-20 and 20 μM (+)-ABA/0224 or 0.1% Tween-20 and 0.05% DMSO (control) was sprayed onto the leaf surface once with a spray amount of 4 ml solution/pot, and then sprayed once every 3 days. Meanwhile, the position of the pot was changed and re-watered 6 days after the drought, and the photos were taken before re-watering and 1 day after re-watering. […]

[1] = system: PYL receptor triple mutant (pyr1;pyl1;pyl4) seeds; assay: Seed germination, PYL receptor triple mutant; type: in vivo, Arabidopsis thaliana; conditions: 1 μM in 1/2 MS solid medium, 6 days after sowing; FIG. 3
Protocol: Take the compounds 0428 and 0224 of the present invention as examples. The seeds of Arabidopsis thaliana Col-0 ecotype and PYL receptor triple mutant (pyr1;pyl1;pyl4) were sterilized with NaClO and placed at 4° C. for 3 days of the vernalization, and then sown in ½ MS solid medium containing 1 μM (+)-ABA/0224 compound or 0.05% DMSO (control) or in ½ MS solid medium containing 2 μM (+)-ABA/compound 0428 of the present invention or 0.05% DMSO (control). Two lines of plant were sown simultaneously on each medium of 6 cm diameter, with 15-20 seeds sown for each line and 4 replicates for each compound. Culture medium was placed at 22° C. with long-day culture. The seeds germinated on a solid medium containing 1 μM (+)-ABA/0224 compound were photographed 6 days after sowing, and seeds germinated on solid medium containing 2 μM (+)-ABA/0428 compound were photographed 9 days after sowing.

rice OsPYL2 protein = biological target: T1, rice OsPYL2 protein (Oryza sativa subsp. japonica, UniProt Q5Z8S0); assay: AlphaScreen assay, rice OsPYL2 with Arabidopsis AtHAB1; type: biochemical; conditions: fraction of the EC50 of ABA; FIG. 13
T1 construct: made in house; host or cells: E. coli BL21 (DE3)
T1 sequence (Q5Z8S0 1-207): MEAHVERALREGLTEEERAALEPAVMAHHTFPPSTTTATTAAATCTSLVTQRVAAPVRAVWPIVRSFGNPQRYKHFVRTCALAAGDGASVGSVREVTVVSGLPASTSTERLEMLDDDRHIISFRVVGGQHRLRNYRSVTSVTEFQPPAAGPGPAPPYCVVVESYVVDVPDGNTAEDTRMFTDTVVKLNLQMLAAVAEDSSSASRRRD
T1 sequence (Q9CAJ0 172-511 partner limits assumed): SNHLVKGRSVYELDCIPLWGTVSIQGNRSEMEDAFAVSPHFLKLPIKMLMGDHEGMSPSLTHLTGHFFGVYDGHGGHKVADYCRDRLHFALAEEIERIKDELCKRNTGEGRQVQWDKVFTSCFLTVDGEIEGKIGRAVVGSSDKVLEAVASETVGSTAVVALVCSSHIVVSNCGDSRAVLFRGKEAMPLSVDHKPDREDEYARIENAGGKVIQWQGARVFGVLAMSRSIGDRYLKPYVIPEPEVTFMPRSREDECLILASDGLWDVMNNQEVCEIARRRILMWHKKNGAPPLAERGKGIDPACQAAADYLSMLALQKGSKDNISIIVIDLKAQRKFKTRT
Protocol: (§1) The AlphaScreen kit (available from Perkin Elmer) was used, and the method was as follows: a 10× buffer (50 mM MOPS, pH 7.4, 50 mM NaF, 50 mM CHAPS, 0.1 mg/ml bovine serum albumin) diluted at 1:10, each of 100 nM HAB1 with Biotin tag sequence and PYR1/PYL1/PYL2/PYL7/GmPYL6/OsPYL2 protein with dual tags of 6×His and SUMO sequences, corresponding concentrations of (+)-ABA/0224/0304/0706/0708/0713/0715/0428/NC0F4, and 5 μg/ml donor beads and acceptor beads (available from Perkin Elmer) were contained in 150 μl of experimental system. After incubating for 1.5 hours at room temperature in the dark, it was placed into an Envision Plate Reader (available from Perkin Elmer) under the programmed AlphaScreen procedure for readings.

soybean GmPYL6 protein = assay: AlphaScreen assay, soybean GmPYL6 with Arabidopsis AtHAB1; type: biochemical; conditions: fraction of the EC50 of ABA; FIG. 13
Protocol: as §1

For `CCCN1C(=O)OC(C)c2cc(NS(=O)(=O)Cc3c(F)c(F)c(C)c(F)c3F)ccc21` (stereo not shown) [Compound 0224], the “growth after drought and re-watering” value (cotton) was “significantly better than that of the control group (DMSO) or that of the cotton treated with the same concentration of ABA; also recorded: significantly better growth after re-watering than that in the DMSO-sprayed control group and the plants sprayed with the same concentration of ABA” and the “inhibition of seed germination of pyr1;pyl1;pyl4 triple mutant” value [1] was “significantly reduced; also recorded: could not inhibit the seed germination of PYR/PYL triple mutant”.
With `CCCN1C(=O)OCc2cc(NS(=O)(=O)Cc3c(F)c(F)c(C)c(F)c3F)ccc21` [Compound 0428] the “EC50 value for rice OsPYL2 as fraction of that of ABA” value (rice OsPYL2 protein) was “⅓” and the “EC50 value for soybean GmPYL6 as fraction of that of ABA” value (soybean GmPYL6 protein) was “about 1/14”.
